Laboratory results taken from ChEMBL document CHEMBL2429780, “Synthesis, antimicrobial and cytotoxic activity of 2-azetidinone derivatives of pyridyl benzimidazoles” (Med Chem Res, 2013).
The source made the active and inactive calls.

How the values were obtained:
Type in all cases: functional, organism-based
[1] = tested on: Escherichia coli; assay: Antibacterial activity against Escherichia coli MTCC 443 assessed as growth inhibition at 12.5 to 1000 ug/mL after 24 hrs by broth dilution assay
[2] = tested on: Aspergillus niger; assay: Antifungal activity against Aspergillus niger assessed as growth inhibition at 12.5 to 1000 ug/mL after 48 hrs by broth dilution assay
[3] = tested on: Candida albicans; assay: Antifungal activity against Candida albicans assessed as growth inhibition at 12.5 to 1000 ug/mL after 48 hrs by broth dilution assay
[4] = tested on: Streptococcus pyogenes; assay: Antibacterial activity against Streptococcus pyogenes MTCC 442 assessed as growth inhibition at 12.5 to 1000 ug/mL after 24 hrs by broth dilution assay
[5] = tested on: Staphylococcus aureus; assay: Antibacterial activity against Staphylococcus aureus MTCC 96 assessed as growth inhibition at 12.5 to 1000 ug/mL after 24 hrs by broth dilution assay
[6] = tested on: Pseudomonas aeruginosa; assay: Antibacterial activity against Pseudomonas aeruginosa MTCC 1688 assessed as growth inhibition at 12.5 to 1000 ug/mL after 24 hrs by broth dilution assay
[7] = tested on: Aspergillus clavatus; assay: Antifungal activity against Aspergillus clavatus assessed as growth inhibition at 12.5 to 1000 ug/mL after 48 hrs by broth dilution assay

Measured: growth inhibition (GI)

COc1cccc(-c2cc(-c3nc4ccccc4[nH]3)nc(N)c2C#N)c1
inactive: all assays above

Cc1ccccc1-c1cc(-c2nc3ccccc3[nH]2)nc(N)c1C#N
inactive: all assays above

N#Cc1c(-c2ccccc2O)cc(-c2nc3ccccc3[nH]2)nc1N
inactive: all assays above

COc1ccc(-c2cc(-c3nc4ccccc4[nH]3)nc(N)c2C#N)cc1
inactive: all assays above
